Data on 8 molecules can be found in patent US10004701B2, “Methods and compositions for treating infection” (UNIVERSITY OF ROCHESTER, priority 2012, dated 2018).

Test in all cases: AK assay 384-well format, Prestwick library screening
One experiment concerns E. faecium. The experiment is classed as cell-based, Enterococcus faecium. Conditions: 50 μM final drug concentration, cutoff for positive-scoring molecules 3-fold increase; for fold induction at 50 µM: Enterococcus faecium, 3 h.
The test system of experiment [1] is S. aureus strain USA300-0114. Type of experiment: cell-based, Staphylococcus aureus. The conditions noted are these: 50 μM final drug concentration, cutoff for positive-scoring molecules 3-fold increase; for fold induction at 50 µM: Staphylococcus aureus, USA300, 3 h.
Another experiment concerns K. pneumoniae. Type of experiment: cell-based, Klebsiella pneumoniae. Conditions: 50 μM final drug concentration, cutoff for positive-scoring molecules 3-fold increase; for fold induction at 50 µM: Klebsiella pneumoniae, 3 h.
Experiment [2] relates to A. baumannii strain 98-37-09. Type of experiment: cell-based, Acinetobacter baumannii. The conditions noted are these: 50 μM final drug concentration, cutoff for positive-scoring molecules 3-fold increase; for fold induction at 50 µM: Acinetobacter baumannii, 983709, 3 h.
A further experiment deals with P. aeruginosa. Type of experiment: cell-based, Pseudomonas aeruginosa. The conditions noted are these: 50 μM final drug concentration, cutoff for positive-scoring molecules 3-fold increase; for fold induction at 50 µM: Pseudomonas aeruginosa, 3 h.
For another experiment, the system named is E. cloacae. Type of experiment: cell-based, Enterobacter cloacae. Conditions: 50 μM final drug concentration, cutoff for positive-scoring molecules 3-fold increase; for fold induction at 50 µM: Enterobacter cloacae, 3 h.
For a further experiment, the system named is E. coli. Type of experiment: cell-based, Escherichia coli. The conditions noted are these: 50 μM final drug concentration; for fold induction at 50 µM: Escherichia coli, 3 h.
Setting [3] is: planktonic, read-out: AK-based Prestwick Library Screening Results, E. faecium (fold increase in extracellular AK activity).
Setting [4] is: planktonic, read-out: AK-based Prestwick Library Screening Results, S. aureus (fold increase in extracellular AK activity).
[5] abbreviates: planktonic, read-out: AK-based Prestwick Library Screening Results, K. pneumoniae (fold increase in extracellular AK activity).
Where [6] appears, read: planktonic, read-out: AK-based Prestwick Library Screening Results, A. baumannii (fold increase in extracellular AK activity).
Where [7] appears, read: planktonic, read-out: AK-based Prestwick Library Screening Results, P. aeruginosa (fold increase in extracellular AK activity).
[8] abbreviates: planktonic, read-out: AK-based Prestwick Library Screening Results, E. cloacae (fold increase in extracellular AK activity).
[9] abbreviates: planktonic, cutoff for positive-scoring molecules 3-fold increase, read-out: AK-based Prestwick Library Screening Results, E. coli (fold increase in extracellular AK activity).
[10] abbreviates: planktonic E. faecium, 384-well, read-out: AK-based Prestwick Library Screening Results: E. faecium (increase in extracellular AK activity).
[11] abbreviates: planktonic S. aureus, 384-well, read-out: AK-based Prestwick Library Screening Results: S. aureus (increase in extracellular AK activity).
[12] abbreviates: planktonic K. pneumoniae, 384-well, read-out: AK-based Prestwick Library Screening Results: K. pneumoniae (increase in extracellular AK activity).
Setting [13] is: planktonic A. baumannii, 384-well, read-out: AK-based Prestwick Library Screening Results: A. baumannii (increase in extracellular AK activity).
The mark [14] stands for this setting: planktonic P. aeruginosa, 384-well, read-out: AK-based Prestwick Library Screening Results: P. aeruginosa (increase in extracellular AK activity).
Setting [15] is: planktonic E. cloacae, 384-well, read-out: AK-based Prestwick Library Screening Results: E. cloacae (increase in extracellular AK activity).

The structures appear in SMILES notation. Counter-ions that a name gives are not always drawn. Like-named read-outs stand apart in the source and are kept apart here.

As for `CCN(CC)C(=O)c1ccc(O)c(OC)c1` [Ethamivan], the fold induction at 50 µM in the experiment with E. faecium (planktonic E. faecium, read-out: AK-based Prestwick Library Screening Results, E. faecium (increase in extracellular AK activity)) was 1; in experiment [1] (planktonic S. aureus, read-out: AK-based Prestwick Library Screening Results, S. aureus (increase in extracellular AK activity)), 0.6; in the experiment with K. pneumoniae (planktonic K. pneumoniae, read-out: AK-based Prestwick Library Screening Results, K. pneumoniae (increase in extracellular AK activity)), 0.6; in experiment [2] (planktonic A. baumannii, read-out: AK-based Prestwick Library Screening Results, A. baumannii (increase in extracellular AK activity)), 0.9; with P. aeruginosa (planktonic P. aeruginosa, read-out: AK-based Prestwick Library Screening Results, P. aeruginosa (increase in extracellular AK activity)), 0.6; with E. cloacae (planktonic E. cloacae, read-out: AK-based Prestwick Library Screening Results, E. cloacae (increase in extracellular AK activity)) it was 0.9. Further, the fold induction at 50 µM with E. coli (planktonic E. coli, cutoff for positive-scoring molecules 3-fold increase, read-out: AK-based Prestwick Library Screening Results, E. coli (increase in extracellular AK activity)) amounted to 0.6.

Regarding `O=C(Cn1ccnc1[N+](=O)[O-])NCCO` [Etanidazole], the fold induction at 50 µM worked out at 0.8 in the experiment on E. faecium (setting [3]); 0.4 in experiment [1] (setting [4]); 0.5 with K. pneumoniae (setting [5]); 0.5 in experiment [2] (setting [6]); 0.4 with P. aeruginosa (setting [7]); 0.4 in the experiment with E. cloacae (setting [8]). In addition, in the experiment with E. coli (setting [9]), the fold induction at 50 µM turned out to be 0.5.

As to `CN1CCC(=C2c3ccccc3C=Cc3ccccc32)CC1` [Cyproheptadine hydrochloride], the fold induction at 50 µM was found to be 0.9 with E. faecium (384-well format, read-out: AK-based Prestwick Library Screening Results, E. faecium (increase in extracellular AK activity)); 0.6 in experiment [1] (384-well format, read-out: AK-based Prestwick Library Screening Results, S. aureus (increase in extracellular AK activity)); 0.6 with K. pneumoniae (384-well format, read-out: AK-based Prestwick Library Screening Results, K. pneumoniae (increase in extracellular AK activity)); 0.9 in experiment [2] (384-well format, read-out: AK-based Prestwick Library Screening Results, A. baumannii (increase in extracellular AK activity)); 0.9 in the experiment on P. aeruginosa (384-well format, read-out: AK-based Prestwick Library Screening Results, P. aeruginosa (increase in extracellular AK activity)); 0.9 in the experiment with E. cloacae (384-well format, read-out: AK-based Prestwick Library Screening Results, E. cloacae (increase in extracellular AK activity)). The fold induction at 50 µM in the experiment with E. coli (384-well format, cutoff for positive-scoring molecules 3-fold increase, read-out: AK-based Prestwick Library Screening Results, E. coli (increase in extracellular AK activity)) was 0.9.

Take `Cc1oncc1C(=O)Nc1ccc(C(F)(F)F)cc1` [Leflunomide]: the fold induction at 50 µM in the experiment with E. faecium (read-out: AK-based Prestwick Library Screening Results, E. faecium (fold increase in extracellular AK activity)) amounted to 0.7; in experiment [1] (read-out: AK-based Prestwick Library Screening Results, S. aureus (fold increase in extracellular AK activity)), 0.6; in the experiment on K. pneumoniae (read-out: AK-based Prestwick Library Screening Results, K. pneumoniae (fold increase in extracellular AK activity)), 0.6; in experiment [2] (read-out: AK-based Prestwick Library Screening Results, A. baumannii (fold increase in extracellular AK activity)), 0.8; in the experiment with P. aeruginosa (read-out: AK-based Prestwick Library Screening Results, P. aeruginosa (fold increase in extracellular AK activity)), 0.8; with E. cloacae (read-out: AK-based Prestwick Library Screening Results, E. cloacae (fold increase in extracellular AK activity)), 1.5. The fold induction at 50 µM in the experiment with E. coli (cutoff for positive-scoring molecules 3-fold increase, read-out: AK-based Prestwick Library Screening Results, E. coli (fold increase in extracellular AK activity)) amounted to 0.8.

In the case of `Cc1c(Cl)cccc1Nc1ccccc1C(=O)O` [Tolfenamic acid], the fold induction at 50 µM stood at 1.1 with E. faecium (setting [10]); 0.5 in experiment [1] (setting [11]); 0.8 in the experiment on K. pneumoniae (setting [12]); 1.4 in experiment [2] (setting [13]); 1.2 in the experiment on P. aeruginosa (setting [14]); 1.6 in the experiment on E. cloacae (setting [15]). For the same molecule, in the experiment with E. coli (planktonic E. coli, 384-well, cutoff for positive-scoring molecules 3-fold increase, read-out: AK-based Prestwick Library Screening Results: E. coli (increase in extracellular AK activity)), the fold induction at 50 µM was 1.

For the molecule `C[C@]12CCC(=O)C=C1CC[C@@H]1[C@@H]2C(=O)C[C@@]2(C)[C@H]1CC[C@]2(O)C(=O)CO` [Cortisone], in the experiment with E. faecium (384-well format), the “AK-based Prestwick Library Screening Results, E. faecium (increase in extracellular AK activity)” value is on record as 0.9. Further, in experiment [1] (384-well format), the “AK-based Prestwick Library Screening Results, S. aureus (increase in extracellular AK activity)” value is recorded as 0.8. Also, in the experiment on K. pneumoniae (384-well format), the “AK-based Prestwick Library Screening Results, K. pneumoniae (increase in extracellular AK activity)” value is reported as 0.8. Moreover, the “AK-based Prestwick Library Screening Results, A. baumannii (increase in extracellular AK activity)” value in experiment [2] (384-well format) was 1.0. The “AK-based Prestwick Library Screening Results, P. aeruginosa (increase in extracellular AK activity)” value in the experiment on P. aeruginosa (384-well format) is 1.0. Also, the “AK-based Prestwick Library Screening Results, E. cloacae (increase in extracellular AK activity)” value in the experiment on E. cloacae (384-well format) is 1.2. The “AK-based Prestwick Library Screening Results, E. coli (increase in extracellular AK activity)” value in the experiment with E. coli (384-well format, cutoff for positive-scoring molecules 3-fold increase) is listed as 0.9.

Turning to `Cc1nnc(NS(=O)(=O)c2ccc(N)cc2)s1` [Sulfamethizole], the fold induction at 50 µM in the experiment with E. faecium (setting [3]) stood at 0.9; in experiment [1] (setting [4]) it was 0.7; in the experiment on K. pneumoniae (setting [5]), 0.7; in experiment [2] (setting [6]) it was 1.4; in the experiment with P. aeruginosa (setting [7]), 0.8; in the experiment with E. cloacae (setting [8]), 0.9. In addition, the fold induction at 50 µM in the experiment on E. coli (setting [9]) came out at 1.

As to `CCc1cccc2c3c([nH]c12)C(CC)(CC(=O)O)OCC3` (centres unmarked) [Etodolac], the fold induction at 50 µM in the experiment with E. faecium (setting [10]) was 1.1; in experiment [1] (setting [11]), 1; in the experiment with K. pneumoniae (setting [12]), 1.3; in experiment [2] (setting [13]), 1.4; with P. aeruginosa (setting [14]), 1.5; with E. cloacae (setting [15]), 1.2. Moreover, in the experiment on E. coli (planktonic E. coli, 384-well, […], read-out: AK-based Prestwick Library Screening Results: E. coli (increase in extracellular AK activity)), the fold induction at 50 µM stood at 1.2.
